Numbers after ± are expanded uncertainties.
How the values were obtained:
[1] = 298.15 K; 101.33 kPa; Liquid; Vibrating tube method
[2] = refractive index (Na D-line) (dimensionless); settings: 298.15 K; 101.33 kPa; Liquid; Standard Abbe refractometry
[3] = excess molar enthalpy (molar enthalpy of mixing); xn = mol fraction of the nth substance listed; settings: 298.15 K, 101 kPa, Liquid, Calvet calorimetry
[4] = xn = mol fraction of the nth substance listed; settings: 298.15 K, 101 kPa, Liquid, Vibrating tube method

CCCCCCCCCCCC [dodecane]
Settings	mass density [kg/m3]	refractive index
[1]	745.1 ± 0.58	–
[2]	–	1.4192 ± 0.0006

CCCCC(=O)OCC [ethyl pentanoate] + CCCCCCCCCCCC
Settings	excess molar enthalpy [kcal/mol]	mass density [kg/m3]
[3], x2 = 0.043	0.0459 ± 0.0012	–
[3], x2 = 0.0928	0.0887 ± 0.00191	–
[3], x2 = 0.1433	0.129 ± 0.00287	–
[3], x2 = 0.1957	0.163 ± 0.00359	–
[3], x2 = 0.2488	0.192 ± 0.00406	–
[3], x2 = 0.3005	0.214 ± 0.00454	–
[3], x2 = 0.3181	0.219 ± 0.00478	–
[3], x2 = 0.3511	0.23 ± 0.00502	–
[3], x2 = 0.3548	0.232 ± 0.00502	–
[3], x2 = 0.3978	0.242 ± 0.00526	–
[3], x2 = 0.446	0.25 ± 0.00526	–
[3], x2 = 0.5012	0.252 ± 0.0055	–
[3], x2 = 0.5648	0.247 ± 0.00526	–
[3], x2 = 0.6392	0.23 ± 0.00502	–
[3], x2 = 0.7228	0.197 ± 0.0043	–
[3], x2 = 0.8127	0.148 ± 0.00311	–
[3], x2 = 0.9036	0.0896 ± 0.00191	–
[4], x2 = 0.0505	–	858.92 ± 0.26
[4], x2 = 0.1024	–	849.09 ± 0.28
[4], x2 = 0.1522	–	840.25 ± 0.29
[4], x2 = 0.1998	–	832.32 ± 0.3
[4], x2 = 0.2496	–	824.53 ± 0.32
[4], x2 = 0.3013	–	816.7 ± 0.33
[4], x2 = 0.4039	–	802.81 ± 0.37
[4], x2 = 0.502	–	790.76 ± 0.4
[4], x2 = 0.6026	–	779.67 ± 0.43
[4], x2 = 0.6547	–	774.3 ± 0.45
[4], x2 = 0.6992	–	769.94 ± 0.47
[4], x2 = 0.7485	–	765.35 ± 0.48
[4], x2 = 0.7982	–	760.93 ± 0.5
[4], x2 = 0.847	–	756.88 ± 0.52
[4], x2 = 0.8918	–	753.23 ± 0.54
[4], x2 = 0.9497	–	748.76 ± 0.56

CCCCC(=O)OCC [ethyl pentanoate]
Settings	mass density [kg/m3]	refractive index
[1]	869.28 ± 0.23	–
[2]	–	1.3981 ± 0.0005

CCCCCCCCCCCC [dodecane] + CCOC(C)=O
Settings	excess molar enthalpy [kcal/mol]	mass density [kg/m3]
[3], x1 = 0.0232	0.0564 ± 0.00143	–
[3], x1 = 0.0541	0.12 ± 0.00263	–
[3], x1 = 0.0898	0.184 ± 0.00406	–
[3], x1 = 0.1316	0.246 ± 0.00526	–
[3], x1 = 0.18	0.306 ± 0.00645	–
[3], x1 = 0.2292	0.353 ± 0.00765	–
[3], x1 = 0.279	0.389 ± 0.00837	–
[3], x1 = 0.3296	0.416 ± 0.00884	–
[3], x1 = 0.3789	0.434 ± 0.00932	–
[3], x1 = 0.4062	0.442 ± 0.00932	–
[3], x1 = 0.4261	0.444 ± 0.00956	–
[3], x1 = 0.4718	0.448 ± 0.00956	–
[3], x1 = 0.4736	0.446 ± 0.00956	–
[3], x1 = 0.5534	0.43 ± 0.00908	–
[3], x1 = 0.647	0.385 ± 0.00813	–
[3], x1 = 0.7424	0.313 ± 0.00669	–
[3], x1 = 0.8396	0.214 ± 0.00454	–
[3], x1 = 0.9339	0.101 ± 0.00215	–
[4], x1 = 0.097	–	860.06 ± 0.29
[4], x1 = 0.146	–	846.23 ± 0.3
[4], x1 = 0.1976	–	833.46 ± 0.31
[4], x1 = 0.2508	–	821.88 ± 0.32
[4], x1 = 0.2979	–	812.79 ± 0.33
[4], x1 = 0.3903	–	797.68 ± 0.36
[4], x1 = 0.4943	–	783.92 ± 0.39
[4], x1 = 0.6	–	772.56 ± 0.43
[4], x1 = 0.6909	–	764.45 ± 0.46
[4], x1 = 0.7392	–	760.65 ± 0.48
[4], x1 = 0.7931	–	756.85 ± 0.5
[4], x1 = 0.8213	–	754.91 ± 0.51
[4], x1 = 0.8798	–	751.38 ± 0.53
[4], x1 = 0.9374	–	748.08 ± 0.55

CCCCC(=O)OCC [ethyl pentanoate] + CCOC(C)=O
Settings	excess molar enthalpy [kcal/mol]	mass density [kg/m3]
[3], x1 = 0.0627	0.0117 ± 0.000478	–
[3], x1 = 0.1347	0.0213 ± 0.000478	–
[3], x1 = 0.2071	0.0282 ± 0.000717	–
[3], x1 = 0.2799	0.0332 ± 0.000717	–
[3], x1 = 0.3493	0.0351 ± 0.000717	–
[3], x1 = 0.4144	0.0363 ± 0.000956	–
[3], x1 = 0.4736	0.0375 ± 0.000956	–
[3], x1 = 0.5198	0.0368 ± 0.000956	–
[3], x1 = 0.561	0.0361 ± 0.000956	–
[3], x1 = 0.6071	0.0347 ± 0.000717	–
[3], x1 = 0.6645	0.0318 ± 0.000717	–
[3], x1 = 0.7376	0.0272 ± 0.000717	–
[3], x1 = 0.8193	0.021 ± 0.000478	–
[3], x1 = 0.8904	0.0139 ± 0.000478	–
[3], x1 = 0.9529	0.00717 ± 0.000239	–
[4], x1 = 0.0482	–	892.36 ± 0.23
[4], x1 = 0.0954	–	890.53 ± 0.23
[4], x1 = 0.148	–	888.63 ± 0.23
[4], x1 = 0.1941	–	887.05 ± 0.23
[4], x1 = 0.3047	–	883.64 ± 0.24
[4], x1 = 0.4	–	881.02 ± 0.24
[4], x1 = 0.4921	–	878.73 ± 0.24
[4], x1 = 0.5717	–	876.92 ± 0.24
[4], x1 = 0.6556	–	875.16 ± 0.24
[4], x1 = 0.6946	–	874.41 ± 0.24
[4], x1 = 0.7526	–	873.29 ± 0.24
[4], x1 = 0.7924	–	872.6 ± 0.2
[4], x1 = 0.8362	–	871.84 ± 0.24
[4], x1 = 0.8651	–	871.36 ± 0.24
[4], x1 = 0.9263	–	870.36 ± 0.24
[4], x1 = 0.9377	–	870.21 ± 0.24

CCOC(C)=O [ethyl acetate]
Settings	mass density [kg/m3]	refractive index
[1]	894.34 ± 0.23	–
[2]	–	1.37 ± 0.0005
